Common to all, as to type: cell-based
For assay [1], the system named is MDA-MB-231 (breast cancer). As to the kind of experiment: Antiproliferative activity, CCK-8 cell viability. Particulars: Homo sapiens, 72 h, read-out: Inhibition of Cancerous Cells, MDA-MB-231; for inhibition at 3.3 µM: compound concentration of 3.3 μM; for inhibition at 10 µM: compound concentration of 10 μM; for inhibition at 30 µM: compound concentration of 30 μM. The procedure, abridged: (§1)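 Viability relative to DMSO controls came from CCK-8 absorbance at 450 nm after 72 h exposure at 37°C. Compound concentrations were 3.3, 10 or 30 μM, in DMEM plus 10% FBS. Results are categorised by inhibition level: at least 50%, 30 to under 50%, or under 30%.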

Assay [2] concerns A431 (epidermoid carcinoma). As to the kind of experiment: Antiproliferative activity, CCK-8 cell viability. Particulars: Homo sapiens, A-431, 72 h, read-out: Inhibition of Cancerous Cells, A431; for inhibition at 3.3 µM: compound concentration of 3.3 μM; for inhibition at 10 µM: compound concentration of 10 μM; for inhibition at 30 µM: compound concentration of 30 μM. The gist of the method:
as §1

Assay [3] concerns A549 (lung adenocarcinoma). As to the kind of experiment: Antiproliferative activity, CCK-8 cell viability. Particulars: Homo sapiens, 72 h, read-out: Inhibition of Cancerous Cells, A549; for inhibition at 3.3 µM: compound concentration of 3.3 μM; for inhibition at 10 µM: compound concentration of 10 μM; for inhibition at 30 µM: compound concentration of 30 μM.
In assay [4] the test system is SW480 (colon cancer). The assay is described as follows: Antiproliferative activity, CCK-8 cell viability. Particulars: Homo sapiens, 72 h, read-out: Inhibition of Cancerous Cells, SW480; for inhibition at 3.3 µM: compound concentration of 3.3 μM; for inhibition at 10 µM: compound concentration of 10 μM; for inhibition at 30 µM: compound concentration of 30 μM. The procedure, abridged: as §1

The test system of assay [5] is HeLa (cervical cancer). The assay is described as follows: Antiproliferative activity, CCK-8 cell viability. The following applies: Homo sapiens, 72 h, read-out: Inhibition of Cancerous Cells, HELA; for inhibition at 3.3 µM: compound concentration of 3.3 μM; for inhibition at 10 µM: compound concentration of 10 μM; for inhibition at 30 µM: compound concentration of 30 μM.

For assay [6], the system named is HepG2 (liver cancer). The assay is described as follows: Antiproliferative activity, CCK-8 cell viability. The following applies: Homo sapiens, 72 h, read-out: Inhibition of Cancerous Cells, HepG2; for inhibition at 3.3 µM: compound concentration of 3.3 μM; for inhibition at 10 µM: compound concentration of 10 μM; for inhibition at 30 µM: compound concentration of 30 μM. The procedure, abridged:
as §1

Assay [7] concerns B16F10 (malignant melanoma). The assay is described as follows: Antiproliferative activity, CCK-8 cell viability. The following applies: Mus musculus, B16-F10, 72 h, read-out: Inhibition of Cancerous Cells, B16F10; for inhibition at 3.3 µM: compound concentration of 3.3 μM; for inhibition at 10 µM: compound concentration of 10 μM; for inhibition at 30 µM: compound concentration of 30 μM. The gist of the method:
as §1

Assay [8] deals with alpha-smooth muscle actin (α-SMA). The assay is described as follows: Inhibition of TGF-β induced expression of alpha-smooth muscle actin in CFSC cells (western blot). The following applies: compound at 10 μM, TGF-β (10 ng/mL), 24 hours. The procedure, abridged:
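Read-out is percent decrease in α-SMA western-blot band intensity, β-actin also probed, relative to TGF-β-only cells. CFSC cells were co-treated for 24 h at 37 °C with 10 ng/mL TGF-β and 10 μM compound in serum-free DMEM.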
In general terms: A western blot detects proteins with antibodies after separation by electrophoresis.

This note sets out measurements from patent publication US20240116845A1, “INDENE COMPOUNDS, PHARMACEUTICAL COMPOSITIONS THEREOF, AND THEIR THERAPEUTIC APPLICATIONS” (NucMito Pharmaceuticals Co., Ltd., priority 2021, published 2024).

For orientation: inhibition means the percentage by which the read-out fell short of the control.

Bounds are passed on as bounds.

Take `CC1=C(CC(=O)O)c2cc(F)ccc2/C1=C\c1cccc(COc2ccc(C(F)(F)F)cc2)c1` [Compound A21, 2-[(1Z)-5-Fluoro-2-methyl-1-[(3-{[4-(trifluoromethyl)phenoxy]methyl}phenyl)-methylidene]-1H-inden-3-yl]acetic acid]: the inhibition at 3.3 µM in assay [1] is not below 50%; in assay [2] it was 30 to 50%; in assay [3], 30 to 50%; in assay [4] it was not below 50%; in assay [5], 30 to 50%; in assay [6] it was 30 to 50%. For the same compound, the inhibition at 3.3 µM in assay [7] is not below 50%. For the same compound, the inhibition at 10 µM in assay [1] was not below 50%; in assay [2], not below 50%; in assay [3], 30 to 50%; in assay [4], not below 50%; in assay [5] it was 30 to 50%; in assay [6] it was 30 to 50%. The figures for the inhibition at 10 µM in assay [7] and in assay [8] were not below 50% and less than 30%, respectively. In addition, the inhibition at 30 µM in assay [1], in assay [2], in assay [3], in assay [4], in assay [5] and in assay [6] was not below 50% in each case. Further, in assay [7], the inhibition at 30 µM was not below 50%.

Consider `CC1=C(CC(=O)O)c2cc(F)ccc2/C1=C\c1cccc(CN(C)c2ccccc2)c1` [Compound A16, 2-[(1Z)-5-Fluoro-2-methyl-1-[(3-{[methyl(phenyl)amino]methyl}phenyl)-methylidene]-1H-inden-3-yl]acetic acid], for which the inhibition at 3.3 µM is 30 to 50% in assay [1]; less than 30% in assay [2]; 30 to 50% in assay [3]; not below 50% in assay [4]; 30 to 50% in assay [5]; less than 30% in assay [6]. For the same compound, in assay [7], the inhibition at 3.3 µM is less than 30%. Besides, the inhibition at 10 µM was not below 50% in assay [1]; not below 50% in assay [2]; not below 50% in assay [3]; not below 50% in assay [4]; not below 50% in assay [5]; 30 to 50% in assay [6]. Also, the inhibition at 10 µM in assay [7] was less than 30%; in assay [8], not below 80%. Also, the inhibition at 30 µM in assay [1], in assay [2], in assay [3], in assay [4], in assay [5] and in assay [6] was not below 50% throughout. The inhibition at 30 µM in assay [7] is not below 50%.

In the case of `COc1cccc2c1C(CC(=O)O)=C(C)/C2=C/c1ccc(Oc2ccccc2)cc1` [Compound D28, 2-[(1Z)-4-Methoxy-1-(4-(phenoxy)benzylidene)-2-methyl-1H-inden-3-yl]-acetic acid], the inhibition at 3.3 µM in assay [1] was 30 to 50%; in assay [2] it was not below 50%; in assay [3] it was 30 to 50%; in assay [4], not below 50%; in assay [5], less than 30%; in assay [6], not below 50%. The inhibition at 3.3 µM in assay [7] was in the range of 30 to 50%. The inhibition at 10 µM is 30 to 50% in assay [1]; not below 50% in assay [2]; 30 to 50% in assay [3]; not below 50% in assay [4]; less than 30% in assay [5]; not below 50% in assay [6]. The inhibition at 10 µM was not below 50% in assay [7] and 50 to 80% in assay [8]. Moreover, the inhibition at 30 µM is not below 50% in assay [1]; not below 50% in assay [2]; not below 50% in assay [3]; not below 50% in assay [4]; less than 30% in assay [5]; not below 50% in assay [6]. In addition, the inhibition at 30 µM in assay [7] was not below 50%.

As to `CC1=C(CC(=O)O)c2cc(F)ccc2/C1=C\c1ccc(Oc2ccc(F)c(F)c2)cc1` [Compound D5, 2-[(1Z)-5-Fluoro-2-methyl-1-({4-[3,4-difluorophenoxy]phenyl}methylidene)-1H-inden-3-yl]acetic acid], the inhibition at 3.3 µM in assay [1] is not below 50%; in assay [2], less than 30%; in assay [3], 30 to 50%; in assay [4], not below 50%; in assay [5], 30 to 50%; in assay [6], not below 50%. The inhibition at 3.3 µM in assay [7] was not below 50%. The inhibition at 10 µM in assay [1], in assay [2], in assay [3], in assay [4], in assay [5] and in assay [6] was not below 50% each time. In addition, the inhibition at 10 µM was not below 50% in assay [7] and not below 80% in assay [8]. Besides, the inhibition at 30 µM in assay [1], in assay [2], in assay [3], in assay [4], in assay [5] and in assay [6] was not below 50% throughout. For the same compound, the inhibition at 30 µM in assay [7] is not below 50%.

Turning to `CC1=C(CC(=O)O)c2cc(F)ccc2/C1=C\c1ccc(Oc2ccc(F)cc2)cc1C(F)(F)F` [Compound D12, 2-[(1Z)-1-{[2-Trifluoromethyl-4-(4-fluorophenoxy)phenyl]methylidene}-5-fluoro-2-methyl-1H-inden-3-yl]acetic acid], the inhibition at 3.3 µM in assay [1] was not below 50%; in assay [2], 30 to 50%; in assay [3] it was 30 to 50%; in assay [4] it was 30 to 50%; in assay [5], less than 30%; in assay [6] it was not below 50%. In assay [7], the inhibition at 3.3 µM is less than 30%. Moreover, the inhibition at 10 µM is not below 50% in assay [1]; not below 50% in assay [2]; not below 50% in assay [3]; not below 50% in assay [4]; less than 30% in assay [5]; not below 50% in assay [6]. Besides, the inhibition at 10 µM in assay [7] is not below 50%; in assay [8], less than 30%. Also, the inhibition at 30 µM is not below 50% in assay [1]; not below 50% in assay [2]; not below 50% in assay [3]; not below 50% in assay [4]; less than 30% in assay [5]; not below 50% in assay [6]. Further, the inhibition at 30 µM in assay [7] is not below 50%.

Turning to `CC1=C(CC(=O)N(C)O)c2cc(F)ccc2/C1=C\c1ccc(Oc2ccc(F)cc2)cc1` [Compound B2, 2-[(1Z)-5-Fluoro-1-{[4-(4-fluorophenoxy)phenyl]methylidene}-2-methyl-1H-inden-3-yl]-N-hydroxy-N-methylacetamide], the inhibition at 3.3 µM in assay [1] is not below 50%; in assay [2] it was not below 50%; in assay [3] it was not below 50%; in assay [4], not below 50%; in assay [5], 30 to 50%; in assay [6], less than 30%. Moreover, the inhibition at 3.3 µM in assay [7] is not below 50%. The inhibition at 10 µM in assay [1] was not below 50%; in assay [2], not below 50%; in assay [3], not below 50%; in assay [4], not below 50%; in assay [5] it was 30 to 50%; in assay [6] it was 30 to 50%. For the same compound, the figures for the inhibition at 10 µM in assay [7] and in assay [8] were not below 50% and not below 80%, respectively. The inhibition at 30 µM in assay [1], in assay [2], in assay [3], in assay [4], in assay [5] and in assay [6] was not below 50% each time. Besides, the inhibition at 30 µM in assay [7] is not below 50%.
